Measured values as given in patent publication US20250205344A1, “2,4-DIOXOTETRAHYDROPYRIMIDINYL DERATIVES AS DEGRONS IN PROTACS” (GLAXOSMITHKLINE INTELLECTUAL PROPERTY DEVELOPMENT LIMITED, priority 2022, published 2025).
Counter-ions that a name gives are not always drawn.

These molecules were tested against T1, Androgen Receptor (Homo sapiens, UniProt P10275, T878A) (assay: Androgen Receptor Degradation Assay (Nano-Glo HiBiT)). Settings: LNCaP, 18 h, HiBiT-tagged AR in human LnCaP cells, read-out: mean asymptote max.
T1 construct: the AR gene was modified, using CRISPR/Cas9 editing, so the expressed AR protein included an 11 amino acid HiBiT tag; endogenous in cells; host or cells: clonal LnCaP-derived line, AR gene edited by CRISPR/Cas9
T1 sequence (P10275 whole entry T878A): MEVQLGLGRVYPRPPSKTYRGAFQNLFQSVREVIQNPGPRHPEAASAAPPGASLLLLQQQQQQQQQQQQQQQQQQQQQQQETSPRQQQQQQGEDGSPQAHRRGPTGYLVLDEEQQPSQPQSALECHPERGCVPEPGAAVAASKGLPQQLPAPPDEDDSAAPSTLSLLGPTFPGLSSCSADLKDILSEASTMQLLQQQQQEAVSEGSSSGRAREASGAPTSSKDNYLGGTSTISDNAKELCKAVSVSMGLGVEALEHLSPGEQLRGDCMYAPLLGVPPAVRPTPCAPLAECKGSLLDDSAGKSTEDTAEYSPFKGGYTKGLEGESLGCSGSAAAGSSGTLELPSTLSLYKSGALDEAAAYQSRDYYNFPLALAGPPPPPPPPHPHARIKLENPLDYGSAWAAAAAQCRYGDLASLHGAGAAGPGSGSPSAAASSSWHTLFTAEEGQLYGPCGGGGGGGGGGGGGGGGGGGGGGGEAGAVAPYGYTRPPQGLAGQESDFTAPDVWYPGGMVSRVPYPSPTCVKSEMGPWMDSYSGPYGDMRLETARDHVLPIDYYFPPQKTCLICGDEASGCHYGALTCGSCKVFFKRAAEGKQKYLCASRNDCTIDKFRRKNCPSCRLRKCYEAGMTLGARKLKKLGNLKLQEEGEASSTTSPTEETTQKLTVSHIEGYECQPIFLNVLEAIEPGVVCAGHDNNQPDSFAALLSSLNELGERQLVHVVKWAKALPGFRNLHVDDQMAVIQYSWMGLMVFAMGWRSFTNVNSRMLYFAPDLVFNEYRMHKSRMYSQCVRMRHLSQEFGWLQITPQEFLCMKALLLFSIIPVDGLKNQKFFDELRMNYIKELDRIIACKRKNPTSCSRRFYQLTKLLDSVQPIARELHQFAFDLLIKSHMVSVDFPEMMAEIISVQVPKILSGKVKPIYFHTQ
T1 sequence (Q96SW2 whole entry partner): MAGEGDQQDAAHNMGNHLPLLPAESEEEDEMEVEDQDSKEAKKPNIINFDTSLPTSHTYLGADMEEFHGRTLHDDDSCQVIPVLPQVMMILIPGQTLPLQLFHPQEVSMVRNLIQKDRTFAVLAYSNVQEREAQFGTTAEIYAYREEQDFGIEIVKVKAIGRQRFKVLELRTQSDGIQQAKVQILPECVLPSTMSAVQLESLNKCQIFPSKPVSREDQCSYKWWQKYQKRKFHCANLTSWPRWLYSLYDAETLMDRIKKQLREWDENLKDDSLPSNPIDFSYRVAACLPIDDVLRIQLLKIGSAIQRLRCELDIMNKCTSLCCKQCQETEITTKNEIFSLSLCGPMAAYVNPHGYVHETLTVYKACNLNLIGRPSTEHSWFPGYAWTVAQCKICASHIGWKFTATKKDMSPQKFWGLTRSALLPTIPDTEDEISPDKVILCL
T1 sequence (Q16531 whole entry partner): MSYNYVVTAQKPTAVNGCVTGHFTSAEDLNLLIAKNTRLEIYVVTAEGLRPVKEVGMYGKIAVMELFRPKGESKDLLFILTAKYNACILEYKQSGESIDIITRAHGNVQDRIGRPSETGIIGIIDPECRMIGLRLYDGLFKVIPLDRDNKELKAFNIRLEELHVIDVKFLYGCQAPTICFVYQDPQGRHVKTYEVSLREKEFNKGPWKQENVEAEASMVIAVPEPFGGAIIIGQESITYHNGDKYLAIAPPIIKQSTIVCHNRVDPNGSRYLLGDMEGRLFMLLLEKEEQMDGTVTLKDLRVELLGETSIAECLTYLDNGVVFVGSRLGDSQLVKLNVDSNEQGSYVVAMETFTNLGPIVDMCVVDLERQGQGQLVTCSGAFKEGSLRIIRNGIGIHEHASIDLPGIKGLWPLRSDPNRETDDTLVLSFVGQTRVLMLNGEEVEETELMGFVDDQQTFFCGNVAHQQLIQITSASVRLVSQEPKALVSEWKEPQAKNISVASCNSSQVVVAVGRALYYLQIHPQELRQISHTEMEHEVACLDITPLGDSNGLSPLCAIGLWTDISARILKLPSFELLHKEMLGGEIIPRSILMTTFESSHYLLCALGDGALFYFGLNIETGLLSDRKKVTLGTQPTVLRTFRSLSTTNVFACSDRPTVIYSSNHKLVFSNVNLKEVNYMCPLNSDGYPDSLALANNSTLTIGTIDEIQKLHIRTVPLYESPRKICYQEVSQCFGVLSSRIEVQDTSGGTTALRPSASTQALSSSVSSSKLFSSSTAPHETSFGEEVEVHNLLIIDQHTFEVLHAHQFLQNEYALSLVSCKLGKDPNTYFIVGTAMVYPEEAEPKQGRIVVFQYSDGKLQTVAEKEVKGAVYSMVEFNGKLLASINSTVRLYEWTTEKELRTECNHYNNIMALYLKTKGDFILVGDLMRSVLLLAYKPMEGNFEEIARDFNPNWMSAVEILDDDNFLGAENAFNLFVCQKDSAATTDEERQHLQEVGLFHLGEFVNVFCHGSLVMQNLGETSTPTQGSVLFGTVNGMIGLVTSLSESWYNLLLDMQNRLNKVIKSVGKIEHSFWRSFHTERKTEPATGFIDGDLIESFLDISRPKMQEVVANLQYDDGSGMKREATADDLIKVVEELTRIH
Type: cell-based
Outline: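 LnCaP cells with CRISPR-knocked-in N-terminal HiBiT-tagged AR (10,000/well) treated 18 h at 37 °C with PROTACs over 11 threefold concentrations; lytic HiBiT luminescence normalised to DMSO (0%) and cell-free (100%) controls. Relative DC50 = 4-parameter fit inflection; absolute DC50 = 50% degradation interpolation; Dmax = maximum observed degradation.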

Dmax [%] | Compound
≥ 50 | N#Cc1ccc(O[C@H]2CC[C@H](NC(=O)c3ccc(N4CCC(CN5CCC(n6ccc7c(N8CCC(=O)NC8=O)cc(Cl)cc76)CC5)CC4)nn3)CC2)cc1Cl [EAR32, 6-(4-((4-(6-Chloro-4-(2,4-dioxotetrahydropyrimidin-1(2H)-yl)-1H-indol-1-yl)piperidin-1-yl)methyl)piperidin-1-yl)-N-((1r,4r)-4-(3-chloro-4-cyanophenoxy)cyclohexyl)pyridazine-3-carboxamide hydrochloride]
≥ 50 | N#Cc1ccc(O[C@H]2CC[C@H](NC(=O)c3ccc(N4CCC(CN5CCC(n6ncc7c(N8CCC(=O)NC8=O)nccc76)CC5)CC4)nn3)CC2)cc1C(F)(F)F [EAR209, N-((1r,4r)-4-(4-cyano-3-(trifluoromethyl)phenoxy)cyclohexyl)-6-(4-((4-(4-(2,4-dioxotetrahydropyrimidin-1(2H)-yl)-1H-pyrazolo[4,3-c]pyridin-1-yl)piperidin-1-yl)methyl)piperidin-1-yl)pyridazine-3-carboxamide]
≥ 50 | N#Cc1ccc(O[C@H]2CC[C@H](NC(=O)c3ccc(N4CCC(CN5CC6(CC(n7ccc8c(N9CCC(=O)NC9=O)cccc87)C6)C5)CC4)nn3)CC2)cc1Cl [EAR173, N-((1r,4r)-4-(3-Chloro-4-cyanophenoxy)cyclohexyl)-6-(4-((6-(4-(2,4-dioxotetrahydropyrimidin-1(2H)-yl)-1H-indol-1-yl)-2-azaspiro[3.3]heptan-2-yl)methyl)piperidin-1-yl)pyridazine-3-carboxamide]
≥ 50 | N#Cc1ccc(O[C@H]2CC[C@H](NC(=O)c3cnc(N4CCC(CN5CCC(n6ccc7c(N8CCC(=O)NC8=O)nccc76)CC5)CC4)cn3)CC2)cc1C(F)(F)F [EAR181, N-((1r,4r)-4-(4-Cyano-3-(trifluoromethyl)phenoxy)cyclohexyl)-5-(4-((4-(4-(2,4-dioxotetrahydropyrimidin-1(2H)-yl)-1H-pyrrolo[3,2-c]pyridin-1-yl)piperidin-1-yl)methyl)piperidin-1-yl)pyrazine-2-carboxamide]
≥ 50 | N#Cc1ccc(O[C@H]2CC[C@H](NC(=O)c3cnc(N4CCC(CN5CCC(n6ccc7c(N8CCC(=O)NC8=O)cccc76)CC5)CC4)cn3)CC2)cc1C(F)(F)F [EAR22, N-((1r,4r)-4-(4-Cyano-3-(trifluoromethyl)phenoxy)cyclohexyl)-5-(4-((4-(4-(2,4-dioxotetrahydropyrimidin-1(2H)-yl)-1H-indol-1-yl)piperidin-1-yl)methyl)piperidin-1-yl)pyrazine-2-carboxamide hydrochloride]
≥ 50 | N#Cc1ccc(O[C@H]2CC[C@H](NC(=O)c3ccc(N4CCC(CN5CCC(CCn6ccc7c(N8CCC(=O)NC8=O)cccc76)CC5)CC4)nn3)CC2)cc1Cl [EAR179, N-((1r,4r)-4-(3-chloro-4-cyanophenoxy)cyclohexyl)-6-(4-((4-(2-(4-(2,4-dioxotetrahydropyrimidin-1(2H)-yl)-1H-indol-1-yl)ethyl)piperidin-1-yl)methyl)piperidin-1-yl)pyridazine-3-carboxamide hydrochloride]
≥ 50 | N#Cc1ccc(O[C@H]2CC[C@H](NC(=O)c3ccc(N4CCC(CN5CCC(c6ncc7c(N8CCC(=O)NC8=O)cccn67)CC5)CC4)nn3)CC2)cc1Cl [EAR177, N-((1r,4r)-4-(3-Chloro-4-cyanophenoxy)cyclohexyl)-6-(4-((4-(8-(2,4-dioxotetrahydropyrimidin-1(2H)-yl)imidazo[1,5-a]pyridin-3-yl)piperidin-1-yl)methyl)piperidin-1-yl)pyridazine-3-carboxamide]
≥ 50 | N#Cc1ccc(O[C@H]2CC[C@H](NC(=O)c3cnc(N4CCC(CN5CCC(n6ncc7c(N8CCC(=O)NC8=O)c(F)ccc76)CC5)CC4)cn3)CC2)cc1C(F)(F)F [EAR189, N-((1r,4r)-4-(4-Cyano-3-(trifluoromethyl)phenoxy)cyclohexyl)-5-(4-((4-(4-(2,4-dioxotetrahydropyrimidin-1(2H)-yl)-5-fluoro-1H-indazol-1-yl)piperidin-1-yl)methyl)piperidin-1-yl)pyrazine-2-carboxamide hydrochloride]
≥ 50 | N#Cc1ccc(O[C@H]2CC[C@H](NC(=O)c3ccc(N4CCC(CN5CCC(n6ccc7c(N8CCC(=O)NC8=O)ccnc76)CC5)CC4)nn3)CC2)cc1Cl [EAR149, N-((1r,4r)-4-(3-Chloro-4-cyanophenoxy)cyclohexyl)-6-(4-((4-(4-(2,4-dioxotetrahydropyrimidin-1(2H)-yl)-1H-pyrrolo[2,3-b]pyridin-1-yl)piperidin-1-yl)methyl)piperidin-1-yl)pyridazine-3-carboxamide]

Further lines, the molecule ahead of its results:

Compound | Dmax [%]
N#Cc1ccc(O[C@H]2CC[C@H](NC(=O)c3ccc(C4CCN(CC(=O)N5CCC(n6ncc7c(N8CCC(=O)NC8=O)cccc76)CC5)CC4)nn3)CC2)cc1Cl [EAR167, N-((1r,4r)-4-(3-Chloro-4-cyanophenoxy)cyclohexyl)-6-(1-(2-(4-(4-(2,4-dioxotetrahydropyrimidin-1(2H)-yl)-1H-indazol-1-yl)piperidin-1-yl)-2-oxoethyl)piperidin-4-yl)pyridazine-3-carboxamide] | ≥ 50
CC1(C)C(=O)N(c2ccc(C#N)c(C(F)(F)F)c2)C(=S)N1c1ccc(N2CCC(CCN3CCC(n4ccc5c(N6CCC(=O)NC6=O)cncc54)CC3)CC2)cc1 [EAR100, 4-(3-(4-(4-(2-(4-(4-(2,4-Dioxotetrahydropyrimidin-1(2H)-yl)-1H-pyrrolo[2,3-c]pyridin-1-yl)piperidin-1-yl)ethyl)piperidin-1-yl)phenyl)-4,4-dimethyl-5-oxo-2-thioxoimidazolidin-1-yl)-2-(trifluoromethyl)benzonitrile formate] | ≥ 50
CC1(CN2CCC(n3ncc4c(N5CCC(=O)NC5=O)cccc43)CC2)CN(c2ccc(C(=O)N[C@H]3CC[C@H](Oc4ccc(C#N)c(Cl)c4)CC3)nn2)C1 [EAR240, N-((1r,4r)-4-(3-chloro-4-cyanophenoxy)cyclohexyl)-6-(3-((4-(4-(2,4-dioxotetrahydropyrimidin-1(2H)-yl)-1H-indazol-1-yl)piperidin-1-yl)methyl)-3-methylazetidin-1-yl)pyridazine-3-carboxamide] | ≥ 50
N#Cc1ccc(O[C@H]2CC[C@H](NC(=O)c3ccc(C4CCN(C(=O)CN5CCC(n6ccc7c(N8CCC(=O)NC8=O)cccc76)CC5)CC4)cc3)CC2)cc1Cl [AR1, N-((1r,4r)-4-(3-Chloro-4-cyanophenoxy)cyclohexyl)-4-(1-(2-(4-(4-(2,4-dioxotetrahydropyrimidin-1(2H)-yl)-1H-indol-1-yl)piperidin-1-yl)acetyl)piperidin-4-yl)benzamide] | ≥ 50
N#Cc1ccc(O[C@H]2CC[C@H](NC(=O)c3ccc(O[C@H]4CCN(C(=O)CN5CCC(n6ccc7c(N8CCC(=O)NC8=O)cccc76)CC5)C4)nn3)CC2)cc1Cl [EAR188, N-((1r,4S)-4-(3-Chloro-4-cyanophenoxy)cyclohexyl)-6-(((S)-1-(2-(4-(4-(2,4-dioxotetrahydropyrimidin-1(2H)-yl)-1H-indol-1-yl)piperidin-1-yl)acetyl)pyrrolidin-3-yl)oxy)pyridazine-3-carboxamide] | ≥ 50
CC1(C)C(=O)N(c2ccc(C#N)c(C(F)(F)F)c2)C(=S)N1c1ccc(OCCCN2CCC(n3ccc4c(N5CCC(=O)NC5=O)cncc43)CC2)cc1 [EAR104, 4-(3-(4-(3-(4-(4-(2,4-Dioxotetrahydropyrimidin-1(2H)-yl)-1H-pyrrolo[2,3-c]pyridin-1-yl)piperidin-1-yl)propoxy)phenyl)-4,4-dimethyl-5-oxo-2-thioxoimidazolidin-1-yl)-2-(trifluoromethyl)benzonitrile] | ≥ 50
C[C@@H]1CN(c2ccc(C#N)c(Cl)c2)[C@@H](C)CN1C(=O)Nc1cnc(N2CCC(CN3CCC(n4ccc5c(N6CCC(=O)NC6=O)cncc54)CC3)CC2)nc1 [EAR106, (2R,5S)-4-(3-Chloro-4-cyanophenyl)-N-(2-(4-((4-(4-(2,4-dioxotetrahydropyrimidin-1(2H)-yl)-1H-pyrrolo[2,3-c]pyridin-1-yl)piperidin-1-yl)methyl)piperidin-1-yl)pyrimidin-5-yl)-2,5-dimethylpiperazine-1-carboxamide] | ≥ 50
N#Cc1ccc(O[C@H]2CC[C@H](NC(=O)c3ccc(N4C[C@]5(CN6CCC(n7ncc8c(N9CCC(=O)NC9=O)cccc87)CC6)C[C@]5(C(F)(F)F)C4)nn3)CC2)cc1Cl [EAR244, N-((1r,4R)-4-(3-chloro-4-cyanophenoxy)cyclohexyl)-6-((1R,5R)-1-((4-(4-(2,4-dioxotetrahydropyrimidin-1(2H)-yl)-1H-indazol-1-yl)piperidin-1-yl)methyl)-5-(trifluoromethyl)-3-azabicyclo[3.1.0]hexan-3-yl)pyridazine-3-carboxamide] | ≥ 50
N#Cc1ccc(O[C@H]2CC[C@H](NC(=O)c3cnc(N4CCC(CN5CCC(n6ncc7c(N8CCC(=O)NC8=O)cncc76)CC5)CC4)nc3)CC2)cc1Cl [AR216, N-((1r,4r)-4-(3-chloro-4-cyanophenoxy)cyclohexyl)-2-(4-((4-(4-(2,4-dioxotetrahydropyrimidin-1(2H)-yl)-1H-pyrazolo[3,4-c]pyridin-1-yl)piperidin-1-yl)methyl)piperidin-1-yl)pyrimidine-5-carboxamide] | ≥ 50
N#Cc1ccc(O[C@H]2CC[C@H](NC(=O)c3ccc(N4CCC(CN5CCC(n6ncc7c(N8CCC(=O)NC8=O)c(F)ccc76)CC5)CC4)nn3)CC2)cc1Cl [EAR140, N-((1r,4r)-4-(3-Chloro-4-cyanophenoxy)cyclohexyl)-6-(4-((4-(4-(2,4-dioxotetrahydropyrimidin-1(2H)-yl)-5-fluoro-1H-indazol-1-yl)piperidin-1-yl)methyl)piperidin-1-yl)pyridazine-3-carboxamide, hydrochloride] | ≥ 50
